Common to all, as to assay type: cell-based
In one assay the test system is MOLM13. The experiment in a line: CellTiter-Blue cell viability, MOLM13. The note with it: Homo sapiens, MOLM-13; AML cell line, 72 hours. On the procedure:
(§1) The anti-cancer efficacy of exemplary compounds of the application were assessed in vitro against different cancer cell lines. Cell viability was examined following treatment at various concentrations of inhibitor (0.097656-50 μM) using a CellTiter-Blue® cell viability assay. 1×10^4 cells/well were plated in 96-well assay plates in culture medium. All cells were grown in DMEM, IMDM and RPMI-1640 supplemented with 10% fetal bovine serum (FBS). In some instances, FBS was removed for periods ranging from 16-24 hours, and re-introduced with test compound addition. After 24 hrs, test compounds and vehicle controls were added to appropriate wells such that the final volume was 100 μl in each well. The cells were cultured for the desired test exposure period (72 hours) at 37° C. and 5% CO2. The assay plates were removed from 3° C. incubator and 20 μl/well of CellTiter-Blue® Reagent was added. The plates were incubated using standard cell culture conditions for 1-4 hours. Afterwards, the plates were shaken for 10 seconds and florescence was recorded at 560/590 nm using a Cytation 3 spectrophotometer. IC50 values were determined using non-linear regression analysis with GraphPad Prism 6.0 (GraphPad Software Inc.).
On the technique in general: Resazurin is reduced to fluorescent resorufin, in cell work by metabolically active cells.

Assay [1] relates to healthy human lung cells (MRC9). The experiment in a line: CellTiter-Blue cell viability, MRC9. Conditions: non-cancerous, 72 hours. On the procedure:
as §1

The subject of the next assay is MV4-11. The assay is described as follows: CellTiter-Blue cell viability, MV4-11. Conditions: for pIC50: Homo sapiens, MV4-11, AML cell line, 72 hours. On the procedure: as §1
Assay [2] relates to primary human fibroblast cells (PHF). The assay is described as follows: CellTiter-Blue cell viability, PHF. Conditions: non-cancerous, 72 hours. On the procedure: as §1

A word on the pIC50: it is −log10 of the IC50, conventionally taken in molar units. Read a high pIC50 as a low IC50.

pIC50: −log10 of the molar value.

Consider `O=S(=O)(NCc1ccc(F)cc1)c1c(F)c(F)c(F)c(F)c1F` [Comparative Example 4, 2,3,4,5,6-pentafluoro-N-(4-fluorobenzyl)benzenesulfonamide, reference compound], for which the results for the pIC50 (in the assay with MOLM13; in assay [1]; in the assay with MV4-11) were 5.40, 4.77 and 5.51, respectively. For the same molecule, the “potency relative to parent I-1 analogue” value with MV4-11 (cell viability, Table 1) is reported as “less potent”.
For `O=S(=O)(NC1CC1)c1c(F)c(F)c(F)c(F)c1F` [Comparative Example 6, N-cyclopropyl-2,3,4,5,6-pentafluorobenzenesulfonamide, reference compound], the results for the pIC50 (in the assay on MOLM13; in assay [1]; with MV4-11) were 5.15, 4.72 and 5.19, respectively.
In the case of `O=S(=O)(c1c(F)c(F)c(F)c(F)c1F)N(Cc1ccc(F)cc1)CC1CC1` [Compound I-2, N-(cyclopropylmethyl)-2,3,4,5,6-pentafluoro-N-(4-fluorobenzyl)benzenesulfonamide], the pIC50 in the assay with MOLM13 was 5.80; in assay [1] it was 5.11; in the assay on MV4-11, 6.07; in assay [2], 5.54.
As for `O=S(=O)(c1c(F)c(F)c(F)c(F)c1F)N(Cc1ccccc1)Cc1ccc(F)cc1` [Compound I-3], the values for the pIC50 (in the assay with MOLM13; in assay [1]; with MV4-11) were 5.03, 4.84 and 6.23, respectively.
For the molecule `CC(=O)N(Cc1ccc(F)cc1)S(=O)(=O)c1c(F)c(F)c(F)c(F)c1F` [Compound I-4, N-(4-fluorobenzyl)-N-((perfluorophenyl)sulfonyl)acetamide], the pIC50 is 5.29 with MOLM13, 4.60 in assay [1] and 5.68 with MV4-11.
As to `O=S(=O)(c1c(F)c(F)c(F)c(F)c1F)N(Cc1ccccc1)C1CC1` [Compound I-6, N-benzyl-N-cyclopropyl-2,3,4,5,6-pentafluorobenzenesulfonamide], the pIC50 in the assay with MOLM13 is 5.89; in assay [1], 4.76; in the assay with MV4-11, 5.89.
In the case of `O=S(=O)(c1c(F)c(F)c(F)c(F)c1F)N(Cc1cccc(F)c1)C1CC1` [Compound I-11, N-cyclopropyl-2,3,4,5,6-pentafluoro-N-(3-fluorobenzyl)benzenesulfonamide], the pIC50 in the assay on MOLM13 is 5.47; in assay [1], 5.05; in the assay on MV4-11, 5.77.
Turning to `O=S(=O)(c1c(F)c(F)c(F)c(F)c1F)N(Cc1ccc(F)nc1)C1CC1` [Compound I-12, N-cyclopropyl-2,3,4,5,6-pentafluoro-N-((6-fluoropyridin-3-yl)methyl)benzenesulfonamide], the pIC50 in the assay on MOLM13 is 5.51; in assay [1], 4.74; in the assay with MV4-11, 5.87; in assay [2] it was 5.30.
The like results for `O=S(=O)(c1c(F)c(F)c(F)c(F)c1F)N(Cc1ccc(F)cn1)C1CC1` [Compound I-13, N-cyclopropyl-2,3,4,5,6-pentafluoro-N-((5-fluoropyridin-2-yl)methyl)benzenesulfonamide] were, in that order, 5.96, 4.60, 5.77 and 5.26.
For the molecule `CC(C)N(Cc1ccc(F)cc1)S(=O)(=O)c1c(F)c(F)c(F)c(F)c1F` [Compound I-16, 2,3,4,5,6-pentafluoro-N-(4-fluorobenzyl)-N-isopropylbenzenesulfonamide], the pIC50 in the assay with MOLM13 is 5.46; in assay [1] it was 4.60; with MV4-11 it was 5.92; in assay [2], 5.14.
`COc1ccc(CN(C2CC2)S(=O)(=O)c2c(F)c(F)c(F)c(F)c2F)cc1F` [Compound I-17, N-cyclopropyl-2,3,4,5,6-pentafluoro-N-(3-fluoro-4-methoxybenzyl)benzenesulfonamide]: the results for the pIC50 (in the assay with MOLM13; in assay [1]; with MV4-11) were 6.20, 4.79 and 6.10, respectively.
As for `NC(=O)c1ccc(CN(C2CC2)S(=O)(=O)c2c(F)c(F)c(F)c(F)c2F)cc1` [Compound I-20, 4-(((N-cyclopropyl-2,3,4,5,6-pentafluorophenyl)sulfonamido)methyl)benzamide], the pIC50 in the assay on MOLM13 was 5.77; in the assay with MV4-11 it was 5.98; in assay [2] it was 5.31.
In the case of `N#Cc1ccc(CN(C2CC2)S(=O)(=O)c2c(F)c(F)c(F)c(F)c2F)cc1` [Compound I-23, N-(4-cyanobenzyl)-N-cyclopropyl-2,3,4,5,6-pentafluorobenzenesulfonamide], the pIC50 is 5.59 with MOLM13, 5.11 in assay [1], 6.00 in the assay with MV4-11 and 5.26 in assay [2].
With `O=S(=O)(c1c(F)c(F)c(F)c(F)c1F)N(Cc1ccc(C(F)(F)F)cc1)C1CC1` [Compound I-25, N-cyclopropyl-2,3,4,5,6-pentafluoro-N-(4-(trifluoromethyl)benzyl)benzenesulfonamide], the pIC50 in the assay on MOLM13 was 5.98; with MV4-11, 6.02; in assay [2], 5.52.
On the same counts, the results for `O=C(O)c1ccc(CN(C2CC2)S(=O)(=O)c2c(F)c(F)c(F)c(F)c2F)cc1` [Compound I-26, 4-(((N-cyclopropyl-2,3,4,5,6-pentafluorophenyl)sulfonamido)methyl)benzoic acid] are 5.72, 5.92 and 5.19.
As to `COc1cc(CN(C2CC2)S(=O)(=O)c2c(F)c(F)c(F)c(F)c2F)cc(OC)c1O` [Compound I-29, N-cyclopropyl-2,3,4,5,6-pentafluoro-N-(4-hydroxy-3,5-dimethoxybenzyl)benzenesulfonamide], the pIC50 in the assay with MOLM13 is 5.40; in assay [1], 5.01; in the assay with MV4-11, 5.71.
As to `O=S(=O)(c1c(F)c(F)c(F)c(F)c1F)N(CC#Cc1ccccc1)C1CC1` [Compound I-31, N-cyclopropyl-2,3,4,5,6-pentafluoro-N-(3-phenylprop-2-yn-1-yl)benzenesulfonamide], the pIC50 in the assay on MOLM13 is 5.28; in assay [1], 4.81; in the assay with MV4-11, 5.82.
The like results for `O=S(=O)(c1c(F)c(F)c(F)c(F)c1F)N(Cc1ccoc1)C1CC1` [Compound I-33] were, in that order, 5.41, 4.66 and 5.45.
The like results for `O=S(=O)(c1c(F)c(F)c(F)c(F)c1F)N(Cc1cccc(N2CCOCC2)c1)C1CC1` [Compound I-34, N-cyclopropyl-2,3,4,5,6-pentafluoro-N-(3-morpholinobenzyl)benzenesulfonamide] were, in that order, 5.10, 4.85 and 6.02.
Consider `O=S(=O)(c1c(F)c(F)c(F)c(F)c1F)N(Cc1ccc(F)cc1F)C1CC1` [Compound I-35, N-cyclopropyl-N-(2,4-difluorobenzyl)-2,3,4,5,6-pentafluorobenzenesulfonamide], for which the negative-log IC50 (pIC50) in the assay with MOLM13 was 5.40; in assay [1] it was 4.87; in the assay on MV4-11 it was 5.77.
With `Nc1ccc(-c2ccccc2CN(C2CC2)S(=O)(=O)c2c(F)c(F)c(F)c(F)c2F)cc1` [Compound I-38, N-((4′-amino-[1,1′-biphenyl]-2-yl)methyl)-N-cyclopropyl-2,3,4,5,6-pentafluorobenzenesulfonamide], the values for the pIC50 (in the assay with MOLM13; in assay [1]; with MV4-11) were 5.07, 4.88 and 5.84, respectively.
The like results for `Nc1cccc(-c2ccc(CN(C3CC3)S(=O)(=O)c3c(F)c(F)c(F)c(F)c3F)cc2)c1` [Compound I-39, N-((3′-amino-[1,1′-biphenyl]-4-yl)methyl)-N-cyclopropyl-2,3,4,5,6-pentafluorobenzenesulfonamide] were, in that order, 4.83, 4.80 and 5.82.
With `O=S(=O)(c1c(F)c(F)c(F)c(F)c1F)N(Cc1ccccc1F)C1CCC1` [Compound I-45, N-cyclobutyl-2,3,4,5,6-pentafluoro-N-(2-fluorobenzyl)benzenesulfonamide], the figures for the pIC50 (in the assay on MOLM13; in assay [1]; in the assay with MV4-11) were 5.41, 4.85 and 5.64, respectively.
With `O=S(=O)(c1c(F)c(F)c(F)c(F)c1F)N(Cc1ccc(F)cc1)C1CCOC1` (centres unmarked) [Compound I-51, 2,3,4,5,6-pentafluoro-N-(4-fluorobenzyl)-N-(tetrahydrofuran-3-yl)benzenesulfonamide], the negative logarithm of the IC50 (pIC50) was 5.47 in the assay on MOLM13 and 5.32 with MV4-11.
On the same counts, the results for `O=S(=O)(c1c(F)c(F)c(F)c(F)c1F)N(Cc1ccncc1)Cc1ccc(F)cc1` [Compound I-52] are 5.46 and 5.39.
The like results for `O=S(=O)(c1c(F)c(F)c(F)c(F)c1F)N(Cc1ccc(F)cc1)c1ccccc1` [Compound I-53, 2,3,4,5,6-pentafluoro-N-(4-fluorobenzyl)-N-phenylbenzenesulfonamide] were, in that order, 5.82 and 5.85.
For the molecule `CC(C)(C)C(=O)N(Cc1ccc(F)cc1)S(=O)(=O)c1c(F)c(F)c(F)c(F)c1F` [Compound I-54, N-(4-fluorobenzyl)-N-((perfluorophenyl)sulfonyl)pivalamide], the pIC50 was 5.77 in the assay on MOLM13, 6.15 in the assay with MV4-11 and 5.52 in assay [2].
Turning to `CN(Cc1ccc(F)cc1)S(=O)(=O)c1c(F)c(F)c(F)c(F)c1F` [Compound I-58, 2,3,4,5,6-pentafluoro-N-(4-fluorobenzyl)-N-methylbenzenesulfonamide], the values for the pIC50 in the assay with MOLM13 and in the assay on MV4-11 were 5.51 and 6.36, respectively.

These data come from patent US20200277268A1, “PENTAFLUOROPHENYL SULFONAMIDE COMPOUNDS, COMPOSITIONS AND USES THEREOF” (DALRIADA THERAPEUTICS INC., priority 2017, published 2020).
